From ChEMBL document CHEMBL1201862, “PubChem BioAssay data set” (2004)
Active and inactive are the calls of the source. Cut-off read from the data, not from the text of the source: active = IC50 of 20 µM or less and inactive = more.

Molecular target: Tyrosine-protein phosphatase non-receptor type 5 (Homo sapiens, UniProt P54829)
Assay: PTPN5 enzyme inhibition – biochemical, fluorescence intensity, uHTS hits, confirmation (AID 602372)
Assay type: functional
Details: read-out: IC50_Mean

Sequence of Tyrosine-protein phosphatase non-receptor type 5 (P54829 whole entry): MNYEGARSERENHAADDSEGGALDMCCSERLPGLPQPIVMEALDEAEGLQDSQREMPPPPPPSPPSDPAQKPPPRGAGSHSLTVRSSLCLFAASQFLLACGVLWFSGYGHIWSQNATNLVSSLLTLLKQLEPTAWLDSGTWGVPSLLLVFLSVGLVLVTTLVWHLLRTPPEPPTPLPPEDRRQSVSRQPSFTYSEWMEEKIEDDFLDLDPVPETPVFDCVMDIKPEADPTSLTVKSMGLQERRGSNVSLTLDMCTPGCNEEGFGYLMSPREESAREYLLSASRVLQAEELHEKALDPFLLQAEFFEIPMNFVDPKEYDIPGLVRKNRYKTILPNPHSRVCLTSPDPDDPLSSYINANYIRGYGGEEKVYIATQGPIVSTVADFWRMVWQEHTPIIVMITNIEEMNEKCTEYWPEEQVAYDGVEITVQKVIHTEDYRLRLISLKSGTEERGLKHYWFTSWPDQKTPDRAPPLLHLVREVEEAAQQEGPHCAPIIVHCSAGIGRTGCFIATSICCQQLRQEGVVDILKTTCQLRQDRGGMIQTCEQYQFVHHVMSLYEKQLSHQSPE

**Q.** For O=S(=O)(O)c1cc(O)c2cc(Nc3ccccc3)ccc2c1, which IC50 is on record?
**A.** 6.49 µM (active)
